From patent US20220022395A1, “JASMONIC ACID ENDOGENY PROMOTING AGENT, AND METHOD FOR PROMOTING JASMONIC ACID ENDOGENY” (Tokyo University of Science Foundation, priority 2018, published 2022)

What was measured:
PDF1.2 gene [1] = assay: Measurement of expression level of PDF1.2 gene (2), real-time PCR; assay type: in vivo, Arabidopsis thaliana; settings: 50 μM, 48 h; FIG. 3
Description: (§1) Arabidopsis thaliana (Col-0) seeds were sown on a transparent 96-well plate, and soaked in a 1/2 MS medium (150 μL). The seeds were left for 2-3 days in a cool and dark place, and then left to grow under long-day treatment conditions for 10 days. Thereafter, the medium was replaced with a 1/2 MS medium (100 μL) containing compound E1 (50 μM), compound E4 (50 μM), or compound E5 (50 μM), and comparative compounds C1 and C2, vacuum treatment was applied for 10 min, and the seeds were left in the light for 48 h. Eight individual plantlets and 2 beads for crushing were placed in a tube, and immediately frozen with liquid nitrogen and stored at −80° C. In addition, for a negative control, DMSO was added instead of each of compounds E1, E4, and E5. Then, similarly to Test Example 2, RNA was extracted from the frozen sample, and the expression level of the PDF1.2 gene was quantitatively determined by reverse transcription real-time PCR.

[2] = tested on: Arabidopsis thaliana (Col-0); assay: Measurement of amount of endogenous jasmonic acid production (LC-MS/MS); assay type: in vivo; settings: 50 μM, 24 h in the light, vs DMSO negative control; FIG. 1 (*p<0.05; **p<0.01)
Description: Arabidopsis thaliana (Col-0) seeds were sown on a transparent 96-well plate, and soaked in a 1/2 MS medium (150 μL). The seeds were left for 2-3 days in a cool and dark place, and then left to grow under long-day treatment conditions for 9-10 days. Thereafter, the medium was replaced with a 1/2 MS medium (100 μL) containing each (50 μM) of compounds E1, E2, and E3, and comparative compounds C1 and C2, vacuum treatment was applied for 10 min, and the seeds were left in the light for 24 h. About 20 to 60 mg of the plantlets (about 3 individuals) and 2 beads for crushing were placed in a tube, and immediately frozen with liquid nitrogen and stored at −80° C. In addition, for a negative control, DMSO was added instead of each of compounds E1, E2, and E3, and comparative compounds C1 and C2.
The frozen sample was crushed using a bead-type homogenizer (Bead Smash 12; WakenBtech Co., Ltd.) under conditions of 3,000 rpm for 60 sec, and then 1 mL of an aqueous solution of 70% methanol plus 1% acetic acid and 10 ng of d2-JA (internal standard) were added. The mixture was mixed thoroughly by vortexing. This solution was centrifuged at 10,000 rpm for 5 min and the supernatant was collected. The same process was repeated two more times without the addition of the internal standard, and a total of 3 mL of an extract was collected.
The solutions were then applied to a Sep-Pak (registered trademark) Vac 3cc (500 mg) C18 Cartridge (Waters) in the following order of 1. to 6.
1. acetonitrile (one column volume, about 3 mL) 2. 100% methanol (one column volume) 3. distilled water (one column volume) 4. aqueous solution of 70% methanol+1% acetic acid (two column volumes) 5. sample supernatant (total amount) 6. aqueous solution of 70% methanol+1% acetic acid (one column volume) […]
Then, the amount of endogenous jasmonic acid (JA) production was determined by LC-MS/MS. […]

PDF1.2 gene [3] = assay: Measurement of expression level of PDF1.2 gene (3), real-time PCR; assay type: in vivo, Arabidopsis thaliana; settings: 50 μM, 48 h; FIG. 4
Description: as §1, with “3-7” for “2-3”, “μM),” for “μM), compound E4 (50 μM),”, “E6” for “E5”, “E1” for “E1, E4,”, “E6.” for “E5.”

MRC-5 cells = assay: Study on cytotoxicity, WST-8 method; assay type: cell-based, human; settings: 50 μM, cultured 2 days, FIG. 5
Description: Normal fibroblasts MRC-5 from human fetal lung were seeded in a 96-well plate at a cell density of 5,000 cells/well, and cultured for 1 day under conditions of 37° C. and 5% CO2. After the culturing, compound E1 was added to the medium at varying concentrations, and the cells were cultured for another 2 days. Then, the number of viable cells was determined using the WST-8 method, and the viability of the MRC-5 cells was calculated. In addition, for a control, SN-38, an active metabolite of the anticancer drug irinotecan, was added instead of compound E1.

PDF1.2 gene [4] = assay: Measurement of expression level of PDF1.2 gene (1), real-time PCR; assay type: in vivo, Arabidopsis thaliana; settings: 24 h, relative expression (ΔΔCt, EF1-α reference)
Description: Arabidopsis thaliana (Col-0) seeds were sown on a transparent 96-well plate, and soaked in a 1/2 MS medium (150 μL). The seeds were left for 2-3 days in a cool and dark place, and then left to grow under long-day treatment conditions for 9-10 days. Thereafter, the medium was replaced with a 1/2 MS medium (100 μL) containing compound E1 (25 μM) or compound E2 (50 μM), vacuum treatment was applied for 10 min, and the seeds were left in the light for 24 h. About 20 to 60 mg of the plantlets (about 3 individuals) and 2 beads for crushing were placed in a tube, and immediately frozen with liquid nitrogen and stored at −80° C. In addition, for a negative control, DMSO was added instead of each of compounds E1 and E2. […] The concentration of the total RNA obtained was measured, and the total RNA was mixed with RNAse-free H2O to 1/12 μg/μL (6 μL H2O for 0.5 μg of the total RNA), and the mixture was placed in a PCR tube, incubated at 65° C. for 5 min, and then quenched on ice. […] Then, CFX Connect Real-Time PCR Detection System (Bio-Rad) was used to quantitatively determine the expression level of PDF1.2 gene. […] For quantification, the ΔΔCt method was used, and this value was expressed as the relative expression level. […]

Row | Structure (SMILES) | expression level of PDF1.2 gene (PDF1.2 gene [1]) | amount of endogenous jasmonic acid production [2] | expression level of PDF1.2 gene (PDF1.2 gene [3]) | other results
1 | COc1ccc(Oc2cccc(Cl)c2C#N)cc1 [compound E4] | markedly enhanced |  |  | 
2 | N#Cc1c(F)cccc1Oc1ccccc1 [compound E3] |  | significantly increased |  | 
3 | COc1ccc(Oc2cccc(F)c2C#N)cc1 [compound E1] | markedly enhanced | significantly increased | markedly enhanced | viability of the MRC-5 cells (MRC-5 cells): exceeds 60%; expression level of PDF1.2 gene (PDF1.2 gene [4]; 25 μM, FIG. 2A): markedly enhanced
4 | N#Cc1c(Cl)cccc1Oc1ccc(-c2nnco2)cc1 [compound E2] |  | significantly increased |  | expression level of PDF1.2 gene (PDF1.2 gene [4]; 50 μM, FIG. 2B): markedly enhanced
5 | CC(C)Oc1ccc(Oc2cccc(F)c2C#N)cc1 [compound E6] |  |  | markedly enhanced | 
6 | COc1ccc(Oc2cccc(Br)c2C#N)cc1 [compound E5] | markedly enhanced |  |  | 
